In patent publication US11584742B2 (MASARYKOVA UNIVERZITA, priority 2018, dated 2023) one finds IC50 and inhibition data, which are given here for 25 molecules.

pIC50: −log10 of the molar value. Bounds are passed on as bounds.

The target in one assay is T1, MRE11 (Homo sapiens, UniProt P49959).
T1 sequence (P49959 1-708): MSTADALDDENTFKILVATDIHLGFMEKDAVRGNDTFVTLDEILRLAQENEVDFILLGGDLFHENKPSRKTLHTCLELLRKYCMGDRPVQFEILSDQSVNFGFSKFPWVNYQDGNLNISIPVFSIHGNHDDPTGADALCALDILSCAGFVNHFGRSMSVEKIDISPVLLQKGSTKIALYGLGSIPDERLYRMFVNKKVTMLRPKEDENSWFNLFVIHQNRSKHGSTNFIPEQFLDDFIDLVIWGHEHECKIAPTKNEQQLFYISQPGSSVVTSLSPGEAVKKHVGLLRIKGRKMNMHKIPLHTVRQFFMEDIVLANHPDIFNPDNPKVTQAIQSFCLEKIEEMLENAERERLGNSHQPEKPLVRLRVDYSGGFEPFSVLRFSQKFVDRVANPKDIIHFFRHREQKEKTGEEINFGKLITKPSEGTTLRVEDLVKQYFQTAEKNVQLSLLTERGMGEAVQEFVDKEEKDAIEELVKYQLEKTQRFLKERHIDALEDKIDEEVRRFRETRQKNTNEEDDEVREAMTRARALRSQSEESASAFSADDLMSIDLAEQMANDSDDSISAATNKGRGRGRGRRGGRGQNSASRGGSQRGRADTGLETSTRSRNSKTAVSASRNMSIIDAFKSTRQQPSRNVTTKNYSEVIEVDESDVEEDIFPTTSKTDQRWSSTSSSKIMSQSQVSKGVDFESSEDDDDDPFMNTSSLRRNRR
The experiment in a line: HTS nuclease assay (cleavage of CY5/BBQ-quenched 5' overhang DNA substrate). It is filed as biochemical. The conditions noted are these: in vitro HTS nuclease assay; 18 nM MRE11, 40 nM DNA substrate; analysis at t=4 h.

Another assay relates to DR-GFP U2OS cells. The experiment in a line: HR assay (GFP fluorescence after I-SceI transfection, flow cytometry). It is filed as cell-based. The conditions noted are these: Homo sapiens, inhibitor at 25 μM, 72 hours after transfection. The protocol:
DR-GFP U2OS cells (Methods in Molecular Biology 2012, 920, 379.) were transfected with 2.5 μg of I-SceI-expressing pCAGGS vector and treated with the inhibitors at 25 μM concentration. 72 hours after the transfection, the cells were trypsinized and resuspended in 3% BSA in PBS. GFP fluorescence detection was carried out using a BD FACSVerse flow cytometer and data analyzed with FlowJo software.

The test system of assay [1] is Phosphorylated RPA32 S4/S8 in U2OS cells. In words: RPA assay (RPA phosphorylation after camptothecin). It is filed as cell-based. The conditions noted are these: Homo sapiens, U2OS cells pre-treated 1 h, then 1 uM camptothecin 1 h; for inhibition at 10 µM: inhibitor at 10 μM. The protocol: U2OS cells were pre-treated for 1 h with MRE11 inhibitors followed by addition of 1 uM camptothecin for 1 h. Cells were lysed in SDS-PAGE loading buffer, sonicated and boiled at 70° C. for 10 min. Equal amounts of protein (50-100 μg) were analysed by Tris-glycine gel electrophoresis Expression levels were quantified using Multi Gauge software and expressed relative to loading control. Phosphorylated RPA32 S4/S8 (A300-245A, Bethyl Laboratories) 1:1000 dilution was used.

As a reminder, the pIC50 is the IC50 on a negative log10 scale, so that one unit is a factor of ten. What is called inhibition is the relative decrease from the control value, in per cent. On MRE11, `N#C/C(=C\c1cc(Cl)c(O)c(Cl)c1)C(=O)Nc1nc(-c2ccccn2)cs1` [Preparative Example 243, (E)-2-cyano-3-(3,5-dichloro-4-hydroxyphenyl)-N-(4-(pyridin-2-yl)thiazol-2-yl)acrylamide] showed a pIC50 above 5.70. For the same molecule, in the assay on DR-GFP U2OS cells, the inhibition at 25 µM lay within 50 to 75%. In addition, the inhibition at 10 µM in assay [1] was found to be 100%.

Consider `COc1cccnc1-c1csc(NC(=O)/C(C#N)=C/c2ccc(O)c(O)c2)n1` [Preparative Example 242, (E)-2-cyano-3-(3,4-dihydroxyphenyl)-N-(4-(3-methoxypyridin-2-yl)thiazol-2-yl)acrylamide], for which the negative logarithm of the IC50 (pIC50) at MRE11 was above 5.70. In the assay on DR-GFP U2OS cells, this molecule registered an inhibition at 25 µM above 75%. Moreover, the inhibition at 10 µM in assay [1] turned out to be 95%.

In the case of `N#C/C(=C\c1ccc(O)c2ccccc12)C(=O)Nc1nc(-c2ccccc2)cs1` [Preparative Example 227, (E)-2-cyano-3-(4-hydroxynaphthalen-1-yl)-N-(4-phenylthiazol-2-yl)acrylamide], the pIC50 against MRE11 was 5.00 to 5.70. The inhibition at 25 µM with DR-GFP U2OS cells is above 75%.

In the case of `CC(=O)Nc1cccc(/C=C(\C#N)C(=O)Nc2nc(-c3ccccc3)cs2)c1` [Preparative Example 207, 3-(3-acetamidophenyl)-2-cyano-N-(4-phenylthiazol-2-yl)acrylamide], the negative logarithm of the IC50 (pIC50) at MRE11 was 5.00 to 5.70. In the assay on DR-GFP U2OS cells, this molecule had an inhibition at 25 µM of 50 to 75%.

For the molecule `Cc1ccc(-c2csc(NC(=O)/C(C#N)=C/c3cc(Cl)c(O)c(Cl)c3)n2)cc1` [Preparative Example 168], on MRE11, the negative-log IC50 (pIC50) is above 5.70. Further, in the assay with DR-GFP U2OS cells, the inhibition at 25 µM was above 75%.

`N#C/C(=C\c1ccc(O)c(O)c1)C(=O)Nc1nc(-c2cccc(OC(F)(F)F)c2)cs1` [Preparative Example 171, (E)-2-cyano-3-(3,4-dihydroxyphenyl)-N-(4-(3-(trifluoromethoxy)phenyl)thiazol-2-yl)acrylamide] gave a negative-log IC50 (pIC50) against MRE11 of 5.00 to 5.70. The same molecule had an inhibition at 25 µM in the assay with DR-GFP U2OS cells of 50 to 75%.

For the molecule `N#C/C(=C\c1ccc(O)c(O)c1)C(=O)Nc1nc(-c2ccc(F)cc2)cs1` [Preparative Example 187, (E)-2-cyano-3-(3,4-dihydroxyphenyl)-N-(4-(4-fluorophenyl)thiazol-2-yl)acrylamide], the pIC50 on MRE11 is above 5.70. The inhibition at 25 µM in the assay on DR-GFP U2OS cells was above 75%.

Turning to `COc1ccc(-c2csc(NC(=O)/C(C#N)=C/c3ccc(O)c(O)c3)n2)cc1O` [Preparative Example 166, (E)-2-cyano-3-(3,4-dihydroxyphenyl)-N-(4-(3-hydroxy-4-methoxyphenyl)thiazol-2-yl)acrylamide], the pIC50 against MRE11 was above 5.70. Moreover, the inhibition at 25 µM with DR-GFP U2OS cells was above 75%.

At MRE11, `Cc1ccc(-c2csc(NC(=O)/C(C#N)=C/c3ccc(O)c(O)c3)n2)cn1` [Preparative Example 232, (E)-2-cyano-3-(3,4-dihydroxyphenyl)-N-(4-(6-methylpyridin-3-yl)thiazol-2-yl)acrylamide] showed a pIC50 above 5.70. Also, the inhibition at 25 µM with DR-GFP U2OS cells was below 50%.

With `N#C/C(=C\c1ccc(O)c(O)c1)C(=O)Nc1nc(-c2ccc(Br)s2)cs1` [Preparative Example 219, (E)-N-(4-(5-bromothiophen-2-yl)thiazol-2-yl)-2-cyano-3-(3,4-dihydroxyphenyl) acrylamide], at MRE11, the negative logarithm of the IC50 (pIC50) is above 5.70. In the assay on DR-GFP U2OS cells, the inhibition at 25 µM was above 75%.

With `N#C/C(=C\c1cnc(O)c(O)c1)C(=O)Nc1nc(-c2ccccc2)cs1` [Preparative Example 200, (E)-2-cyano-3-(5,6-dihydroxypyridin-3-yl)-N-(4-phenylthiazol-2-yl)acrylamide], the negative logarithm of the IC50 (pIC50) against MRE11 is 5.00 to 5.70. This molecule also yielded an inhibition at 25 µM in the assay on DR-GFP U2OS cells below 50%.

Regarding `CC(C)(C)c1csc(NC(=O)/C(C#N)=C/c2ccc(O)c(O)c2)n1` [Preparative Example 199, (E)-N-(4-(tert-butyl)thiazol-2-yl)-2-cyano-3-(3,4-dihydroxyphenyl)acrylamide], the pIC50 against MRE11 is above 5.70. In the assay with DR-GFP U2OS cells, this molecule gave an inhibition at 25 µM of 50 to 75%.

For the molecule `N#C/C(=C\c1ccc(O)c(O)c1)C(=O)Nc1nc(-c2cccc(Br)c2)cs1` [Preparative Example 169, (E)-N-(4-(3-bromophenyl)thiazol-2-yl)-2-cyano-3-(3,4-dihydroxyphenyl)acrylamide], the negative-log IC50 (pIC50) against MRE11 is above 5.70. Further, the inhibition at 25 µM with DR-GFP U2OS cells was above 75%.

`COc1cc(/C=C(\C#N)C(=O)Nc2nc(-c3ccccc3)cs2)cc(F)c1O` [Preparative Example 203, (E)-2-cyano-3-(3-fluoro-4-hydroxy-5-methoxyphenyl)-N-(4-phenylthiazol-2-yl)acrylamide] gave a pIC50 against MRE11 of 5.00 to 5.70. In the assay on DR-GFP U2OS cells, this molecule had an inhibition at 25 µM below 50%.

Consider `COc1ccc(-c2csc(NC(=O)/C(C#N)=C/c3ccc(O)c(O)c3)n2)cn1` [Preparative Example 241, (E)-2-cyano-3-(3,4-dihydroxyphenyl)-N-(4-(6-methoxypyridin-3-yl)thiazol-2-yl)acrylamide], for which the negative-log IC50 (pIC50) at MRE11 was above 5.70. The inhibition at 25 µM is below 50% in the assay on DR-GFP U2OS cells and 75% in assay [1] (inhibitor at 25 μM).

Molecule `N#C/C(=C\c1ccc2[nH]c(=O)[nH]c2c1)C(=O)Nc1nc(-c2ccccc2)cs1` [Preparative Example 216, (E)-2-cyano-3-(2-oxo-2,3-dihydro-1H-benzo[d]imidazol-5-yl)-N-(4-phenylthiazol-2-yl)acrylamide] showed a pIC50 at MRE11 of 4.05 to 5.00. The inhibition at 25 µM in the assay on DR-GFP U2OS cells was below 50%.

As for `COc1ccc(-c2csc(NC(=O)/C(C#N)=C/c3ccc(O)c(O)c3)n2)cc1` [Preparative Example 162, (E)-2-cyano-3-(3,4-dihydroxyphenyl)-N-(4-(4-methoxyphenyl)thiazol-2-yl)acrylamide], the pIC50 at MRE11 is above 5.70. Besides, in the assay with DR-GFP U2OS cells, the inhibition at 25 µM is above 75%.

`N#C/C(=C\c1ccc(O)cc1F)C(=O)Nc1nc(-c2ccccc2)cs1` [Preparative Example 226, (E)-2-cyano-3-(2-fluoro-4-hydroxyphenyl)-N-(4-phenylthiazol-2-yl)acrylamide] had a negative logarithm of the IC50 (pIC50) at MRE11 of 4.05 to 5.00. In the assay on DR-GFP U2OS cells, this molecule had an inhibition at 25 µM above 75%.

For `N#C/C(=C\c1ccc(O)c(O)c1)C(=O)Nc1nc(-c2ccc(C(F)(F)F)cn2)cs1` [Preparative Example 179, (E)-2-cyano-3-(3,4-dihydroxyphenyl)-N-(4-(5-(trifluoromethyl)pyridin-2-yl)thiazol-2-yl)acrylamide], the negative-log IC50 (pIC50) on MRE11 is above 5.70. For the same molecule, in the assay on DR-GFP U2OS cells, the inhibition at 25 µM is above 75%.

Turning to `N#C/C(=C\c1ccc(O)c(O)c1)C(=O)Nc1nc(-c2ccccc2)c(-c2ccccc2)s1` [Preparative Example 176, (E)-2-cyano-3-(3,4-dihydroxyphenyl)-N-(4,5-diphenylthiazol-2-yl)acrylamide], the pIC50 at MRE11 was above 5.70. Moreover, the inhibition at 25 µM in the assay with DR-GFP U2OS cells was above 75%.

`N#C/C(=C\c1ccc(O)c(O)c1)C(=O)Nc1nc(-c2ccccc2)c(Br)s1` [Preparative Example 196, (E)-N-(5-bromo-4-phenylthiazol-2-yl)-2-cyano-3-(3,4-dihydroxyphenyl)acrylamide] showed a pIC50 on MRE11 above 5.70. The molecule further yielded an inhibition at 25 µM in the assay on DR-GFP U2OS cells of 50 to 75%.

With `N#C/C(=C\c1ccc2c(c1)OCC(=O)N2)C(=O)Nc1nc(-c2ccccc2)cs1` [Preparative Example 220, (E)-2-cyano-3-(3-oxo-3,4-dihydro-2H-benzo[b][1,4]oxazin-7-yl)-N-(4-phenylthiazol-2-yl)acrylamide], the negative-log IC50 (pIC50) on MRE11 was 4.05 to 5.00. The molecule also registered an inhibition at 25 µM with DR-GFP U2OS cells of 50 to 75%.

Molecule `N#C/C(=C\c1cccc(C(=O)O)c1)C(=O)Nc1nc(-c2ccccc2)cs1` [Preparative Example 210, (E)-3-(2-cyano-3-oxo-3-((4-phenylthiazol-2-yl)amino)prop-1-en-1-yl)benzoic acid] had a negative-log IC50 (pIC50) against MRE11 of 4.05 to 5.00. Besides, the inhibition at 25 µM in the assay with DR-GFP U2OS cells is below 50%.

In the case of `N#C/C(=C\c1ccc(O)c(O)c1)C(=O)Nc1nc(-c2ccc(N3CCOCC3)cc2)cs1` [Preparative Example 178], the negative-log IC50 (pIC50) at MRE11 was above 5.70. In the assay with DR-GFP U2OS cells, this molecule displayed an inhibition at 25 µM of 50 to 75%.

As for `N#C/C(=C\c1ccc(O)c(O)c1)C(=O)Nc1nc(-c2ccc(OC(F)(F)F)cc2)c(C2CCCCC2)s1` [Preparative Example 175, (E)-2-cyano-N-(5-cyclohexyl-4-(4-(trifluoromethoxy)phenyl)thiazol-2-yl)-3-(3,4-dihydroxyphenyl)acrylamide], the pIC50 at MRE11 is 5.00 to 5.70. This molecule registered an inhibition at 25 µM in the assay with DR-GFP U2OS cells above 75%.
